Measured values: US20210138039A1, “PAIN RESPONSE MEDIATOR COMPOSITIONS AND METHODS FOR MAKING AND USING SAME” (Q-STATE BIOSCIENCES, INC., priority 2017, published 2021)
No end group written: not given here.

How the values were obtained:
animal models = conditions: subcutaneous injection; cited from earlier work
[1] = system: E18 rat hippocampal neurons; experiment: High-throughput fluorescent voltage recording, 96-well plate (FIGS. 30-34); assay type: cell-based; conditions: 1 μM; neurons cultured for 14 days; blue light stimulus
Text: FIGS. 30-34 show high-throughput validation for screening. E18 rat hippocampal neurons cultured for 14 days.
The blue light stimulus is shown below.
FIG. 31 is a raster plot showing spikes from columns of wells.
Vehicle wells (even columns, green) and ML213 wells (odd columns, red) are easily distinguished. Even numbered columns are all green; odd numbered columns are all read.

rats = conditions: injected in rats; cited from earlier work
humans = conditions: injection in humans; cited from earlier work
[2] = system: iPS cell-derived sensory neurons; assay type: cell-based, human
mouse DRG neurons = assay type: cell-based
Cultured DRG neurons = experiment: Firing phenotypes of cultured DRG neurons; assay type: cell-based, rodent

In the case of “endothelin 1 (CSCSSLMDKECVYFCHLDIIW; ends and bridges not checked; cysteine pairing not given here; UniProt P05305 53-73, looked up) [ET-1]”, the “sensitization (paw withdrawal threshold)” value (animal models) is listed as “local sensitization”.

For `Cc1cc(C)c(NC(=O)C2CC3CCC2C3)c(C)c1` (stereo not shown) [ML213], the firing rate [1] was “dramatically reduces firing rate in all wells tested”.

In the case of TNF-a, the pain on injection (rats) is listed as “cause pain”.

In the case of `Nc1ncnc2c1ncn2[C@@H]1O[C@H](COP(=O)(O)OP(=O)(O)OP(=O)(O)O)[C@@H](O)[C@H]1O` [ATP, adenosine triphosphate], the “pain sensitivity on injection” value (humans) is listed as “increased pain sensitivity”.

With `NC1=N[C@H](O)[C@H]2[C@H]3O[C@]4(O)O[C@@H]([C@@H](O)[C@@]2(N1)[C@@H]4O)[C@]3(O)CO` [TTX, tetrodotoxin] the “spiking in response to the blue stimulus” value [2] was “almost all spiking is blocked”, the after-hyperpolarization depth (mouse DRG neurons) was “decreases” and the “effect on the pain mediator composition-induced firing” value (mouse DRG neurons) was “blocks the effect of the pain mediator composition”. For the same compound, the spike width (mouse DRG neurons) was “increases”.

For “IL-6: an inflammatory cytokine found to be elevated around tumors”, the pain on injection (rats) is given as “causes local pain”.

In the case of `COc1cc(CNC(=O)CCCC/C=C/C(C)C)ccc1O` [capsaicin], the “firing phenotype in response to capsaicin” value (Cultured DRG neurons) is reported as “acute response”.
